Data: paper PMC7278553, “Blocking interaction between SHP2 and PD‐1 denotes a novel opportunity for developing PD‐1 inhibitors” (EMBO Molecular Medicine, 2020)

Biological target: T1, SHP2 (Homo sapiens, UniProt Q06124)
T1 construct: gene PTPN11; recombinant hSHP2-FC (R&D Systems, 1894-SH-100)
T1 sequence (Q06124 2-593): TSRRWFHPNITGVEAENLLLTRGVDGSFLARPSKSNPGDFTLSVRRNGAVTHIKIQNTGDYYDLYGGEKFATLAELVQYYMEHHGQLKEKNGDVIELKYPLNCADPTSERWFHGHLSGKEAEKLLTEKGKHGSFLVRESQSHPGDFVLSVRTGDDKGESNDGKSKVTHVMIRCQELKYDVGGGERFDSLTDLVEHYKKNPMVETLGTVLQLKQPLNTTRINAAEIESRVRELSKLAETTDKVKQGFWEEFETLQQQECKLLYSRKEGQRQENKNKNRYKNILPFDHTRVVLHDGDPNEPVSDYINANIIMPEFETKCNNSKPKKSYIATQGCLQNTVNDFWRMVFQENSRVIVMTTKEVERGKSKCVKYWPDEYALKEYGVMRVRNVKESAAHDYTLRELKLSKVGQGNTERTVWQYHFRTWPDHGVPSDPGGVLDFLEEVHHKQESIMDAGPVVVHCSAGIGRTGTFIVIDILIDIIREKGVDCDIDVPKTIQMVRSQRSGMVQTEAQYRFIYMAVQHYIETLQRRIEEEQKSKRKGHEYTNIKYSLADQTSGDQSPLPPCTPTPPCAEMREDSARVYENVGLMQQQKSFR
T1 sequence (Q15116 235-264 partner): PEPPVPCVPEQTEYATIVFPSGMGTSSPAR
Assay: ELISA: MB blocks binding of purified recombinant SHP2-Fc to coated phospho-ITSM PD-1 peptide; supported by co-IP and split-luciferase complementation in cells
Type: biochemical

CN(C)c1ccc2nc3ccc(N(C)C)cc3[s+]c2c1 [MB, 3,7‐bis(dimethylamino)‐5‐phenothiazinium chloride]
ELISA: MB blocks binding of purified recombinant SHP2-Fc to coated phospho-ITSM: MB dose‐dependently blocked the binding of SHP2 protein to coated Pep‐ITSM‐p248Y, unequivocally showing that MB directly blocked interaction
